Experimental findings from ChEMBL document CHEMBL3352433, “Class II but Not Second Class-Prospects for the Development of Class II PI3K Inhibitors” (ACS Med Chem Lett, 2015) are described below.

The structures appear in SMILES notation. pIC50: −log10 of the molar value.

Assay [1] is described as follows: Inhibition of human class 4 PI3K by non-radiometric ADP-Glo assay.
Assay [2] addresses Phosphatidylinositol 4-phosphate 3-kinase C2 domain-containing subunit beta (Homo sapiens, UniProt O00750). In words: Inhibition of human PI3KC2beta by non-radiometric ADP-Glo assay.
Assay [3] in a line: Inhibition of human class 1 PI3K by non-radiometric ADP-Glo assay.
Assay [4] deals with Phosphatidylinositol 4-phosphate 3-kinase C2 domain-containing subunit alpha (Homo sapiens, UniProt O00443). Nature of the assay: Inhibition of human PI3KC2alpha by non-radiometric ADP-Glo assay. (In general: ADP-Glo first removes unused ATP, then detects ADP through luciferase.)
The target in assay [5] is DNA-dependent protein kinase catalytic subunit (Homo sapiens, UniProt P78527). In words: Inhibition of human DNA-PK by non-radiometric ADP-Glo assay.
In assay [6] the target is Serine/threonine-protein kinase mTOR (Homo sapiens, UniProt P42345). In words: Inhibition of human mTOR by non-radiometric ADP-Glo assay.

Sequence of DNA-dependent protein kinase catalytic subunit (P78527 whole entry): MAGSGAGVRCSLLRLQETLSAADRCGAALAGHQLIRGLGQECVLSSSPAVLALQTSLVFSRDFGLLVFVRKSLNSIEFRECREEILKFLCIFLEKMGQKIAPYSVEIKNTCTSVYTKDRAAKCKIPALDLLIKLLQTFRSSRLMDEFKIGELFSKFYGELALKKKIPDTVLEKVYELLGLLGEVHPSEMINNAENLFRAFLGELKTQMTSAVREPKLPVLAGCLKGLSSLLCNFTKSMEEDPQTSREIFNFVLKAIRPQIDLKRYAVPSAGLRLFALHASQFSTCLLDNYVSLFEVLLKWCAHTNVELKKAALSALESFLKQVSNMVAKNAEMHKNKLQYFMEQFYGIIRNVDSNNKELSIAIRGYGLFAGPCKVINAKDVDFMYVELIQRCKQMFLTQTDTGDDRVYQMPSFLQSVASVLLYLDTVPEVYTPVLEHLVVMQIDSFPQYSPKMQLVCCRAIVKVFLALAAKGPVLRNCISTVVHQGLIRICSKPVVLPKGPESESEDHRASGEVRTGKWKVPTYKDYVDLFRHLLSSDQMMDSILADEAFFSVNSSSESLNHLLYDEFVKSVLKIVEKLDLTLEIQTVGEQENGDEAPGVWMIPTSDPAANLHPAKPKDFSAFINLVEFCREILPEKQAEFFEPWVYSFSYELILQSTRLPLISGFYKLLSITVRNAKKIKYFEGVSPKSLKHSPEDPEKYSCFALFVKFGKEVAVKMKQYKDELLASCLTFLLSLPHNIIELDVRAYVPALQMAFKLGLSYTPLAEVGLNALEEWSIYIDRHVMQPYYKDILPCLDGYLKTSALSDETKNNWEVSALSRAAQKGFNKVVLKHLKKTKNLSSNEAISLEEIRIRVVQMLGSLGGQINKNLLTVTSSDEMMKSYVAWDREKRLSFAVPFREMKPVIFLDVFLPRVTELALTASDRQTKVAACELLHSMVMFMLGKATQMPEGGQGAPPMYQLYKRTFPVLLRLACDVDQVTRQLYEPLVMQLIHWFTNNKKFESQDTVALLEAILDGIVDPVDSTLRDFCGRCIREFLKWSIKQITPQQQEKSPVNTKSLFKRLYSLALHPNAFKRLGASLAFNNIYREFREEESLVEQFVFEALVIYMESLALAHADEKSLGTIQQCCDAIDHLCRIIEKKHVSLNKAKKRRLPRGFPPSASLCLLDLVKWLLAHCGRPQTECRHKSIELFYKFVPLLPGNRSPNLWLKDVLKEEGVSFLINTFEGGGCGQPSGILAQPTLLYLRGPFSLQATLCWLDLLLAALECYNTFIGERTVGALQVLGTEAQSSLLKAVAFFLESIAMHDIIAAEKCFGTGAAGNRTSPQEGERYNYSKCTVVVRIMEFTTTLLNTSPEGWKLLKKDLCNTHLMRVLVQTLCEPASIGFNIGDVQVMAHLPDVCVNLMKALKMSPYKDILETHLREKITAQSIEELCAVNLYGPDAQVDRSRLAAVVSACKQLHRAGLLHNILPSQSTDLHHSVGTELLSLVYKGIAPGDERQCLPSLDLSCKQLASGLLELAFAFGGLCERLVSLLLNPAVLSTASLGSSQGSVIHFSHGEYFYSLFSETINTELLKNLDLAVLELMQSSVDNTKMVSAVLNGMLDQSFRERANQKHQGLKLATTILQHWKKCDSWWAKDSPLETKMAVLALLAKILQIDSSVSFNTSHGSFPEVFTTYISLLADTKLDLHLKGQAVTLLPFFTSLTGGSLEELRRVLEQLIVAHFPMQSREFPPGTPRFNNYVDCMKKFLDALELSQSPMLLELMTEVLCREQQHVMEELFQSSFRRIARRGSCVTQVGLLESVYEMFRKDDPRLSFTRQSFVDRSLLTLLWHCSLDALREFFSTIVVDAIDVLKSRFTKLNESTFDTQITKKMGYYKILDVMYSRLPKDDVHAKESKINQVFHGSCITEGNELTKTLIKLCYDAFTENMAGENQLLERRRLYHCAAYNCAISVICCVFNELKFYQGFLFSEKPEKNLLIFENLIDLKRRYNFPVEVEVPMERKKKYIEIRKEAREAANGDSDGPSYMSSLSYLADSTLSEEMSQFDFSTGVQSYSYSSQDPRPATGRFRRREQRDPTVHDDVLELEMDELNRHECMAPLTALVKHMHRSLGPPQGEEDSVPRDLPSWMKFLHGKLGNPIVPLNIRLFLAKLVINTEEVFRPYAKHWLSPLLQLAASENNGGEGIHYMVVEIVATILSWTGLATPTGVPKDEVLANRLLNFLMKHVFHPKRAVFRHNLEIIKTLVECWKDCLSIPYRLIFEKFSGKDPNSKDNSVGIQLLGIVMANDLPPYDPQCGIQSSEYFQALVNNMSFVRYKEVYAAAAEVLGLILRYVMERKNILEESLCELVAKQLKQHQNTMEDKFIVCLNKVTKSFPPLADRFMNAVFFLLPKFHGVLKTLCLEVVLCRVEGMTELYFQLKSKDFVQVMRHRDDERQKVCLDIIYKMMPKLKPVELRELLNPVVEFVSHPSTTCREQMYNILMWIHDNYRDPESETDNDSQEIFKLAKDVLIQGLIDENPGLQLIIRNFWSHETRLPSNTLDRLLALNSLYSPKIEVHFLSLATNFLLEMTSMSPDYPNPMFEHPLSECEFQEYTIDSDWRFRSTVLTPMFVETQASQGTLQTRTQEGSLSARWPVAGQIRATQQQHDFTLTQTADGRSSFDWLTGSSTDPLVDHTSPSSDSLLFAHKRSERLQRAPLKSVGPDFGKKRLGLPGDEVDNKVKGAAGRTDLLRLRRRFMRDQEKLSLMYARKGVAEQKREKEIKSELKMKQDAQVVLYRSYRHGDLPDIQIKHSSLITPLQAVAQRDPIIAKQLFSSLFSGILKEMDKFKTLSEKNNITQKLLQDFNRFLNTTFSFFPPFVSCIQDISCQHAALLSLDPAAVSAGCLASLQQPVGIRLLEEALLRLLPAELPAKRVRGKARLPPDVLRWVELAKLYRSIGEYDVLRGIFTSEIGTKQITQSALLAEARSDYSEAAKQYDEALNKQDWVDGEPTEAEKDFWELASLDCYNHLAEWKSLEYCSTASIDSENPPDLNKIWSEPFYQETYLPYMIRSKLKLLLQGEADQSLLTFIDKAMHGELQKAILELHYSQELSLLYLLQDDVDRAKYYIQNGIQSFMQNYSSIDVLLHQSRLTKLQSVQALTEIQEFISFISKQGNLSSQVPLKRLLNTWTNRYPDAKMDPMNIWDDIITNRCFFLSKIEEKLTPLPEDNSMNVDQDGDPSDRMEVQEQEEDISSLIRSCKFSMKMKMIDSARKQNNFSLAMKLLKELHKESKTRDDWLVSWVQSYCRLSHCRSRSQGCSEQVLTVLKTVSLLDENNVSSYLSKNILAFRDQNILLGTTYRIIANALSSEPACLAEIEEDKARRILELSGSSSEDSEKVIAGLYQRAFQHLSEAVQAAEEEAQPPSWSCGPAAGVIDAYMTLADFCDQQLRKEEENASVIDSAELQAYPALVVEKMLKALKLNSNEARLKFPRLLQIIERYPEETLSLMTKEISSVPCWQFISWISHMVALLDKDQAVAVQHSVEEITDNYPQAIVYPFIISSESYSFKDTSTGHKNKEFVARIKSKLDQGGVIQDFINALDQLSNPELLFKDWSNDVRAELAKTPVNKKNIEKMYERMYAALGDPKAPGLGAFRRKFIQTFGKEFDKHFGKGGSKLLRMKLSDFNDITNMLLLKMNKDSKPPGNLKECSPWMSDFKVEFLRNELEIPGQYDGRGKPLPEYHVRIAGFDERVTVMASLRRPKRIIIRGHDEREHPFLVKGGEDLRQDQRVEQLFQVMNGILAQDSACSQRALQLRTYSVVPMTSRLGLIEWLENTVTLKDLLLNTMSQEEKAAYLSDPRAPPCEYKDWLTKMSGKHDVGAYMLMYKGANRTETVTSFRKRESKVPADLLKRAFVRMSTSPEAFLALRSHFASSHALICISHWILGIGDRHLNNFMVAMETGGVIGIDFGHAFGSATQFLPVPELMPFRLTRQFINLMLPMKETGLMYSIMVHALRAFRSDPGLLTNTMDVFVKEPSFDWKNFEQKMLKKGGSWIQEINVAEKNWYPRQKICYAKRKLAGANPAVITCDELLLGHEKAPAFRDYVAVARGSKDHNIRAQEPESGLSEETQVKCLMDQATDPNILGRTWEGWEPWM

On to `CC(=O)Nc1ccc2nc(-c3cccc(NS(=O)(=O)c4ccccc4)c3)nc(N3CCOCC3)c2c1`, for which the negative logarithm of the IC50 (pIC50) (as a rule, −log10 of the IC50, conventionally taken in molar units) in assay [1] is < 4.00; in assay [2], 6.20; in assay [3], < 5.00.
For `CC(=O)Nc1ccc2nc(-c3cccc(NS(=O)(=O)c4cccc5ccccc45)c3)nc(N3CCOCC3)c2c1`, the values for the negative logarithm of the IC50 (pIC50) in assay [1], in assay [2] and in assay [3] were < 4.00, 6.28 and < 5.00, respectively.
For `COc1ccc2c(c1OC)N=C(NC(=O)c1cccnc1)N1CCN=C21`, the pIC50 in assay [2] is 7.19; in assay [4], 7.33; in assay [5], 7.89.
`CC(=O)Nc1nc(C)c(-c2ccc(Cl)c(S(=O)(=O)NCCO)c2)s1`: the pIC50 is 6.85 in assay [2], 4.80 in assay [4] and 7.19 in assay [5].
In assay [4], `Oc1cccc(-c2nc(N3CCOCC3)c3oc4ncccc4c3n2)c1` [PI-103] had a negative-log IC50 (pIC50) of 6.00.
On to `CS(=O)(=O)N1CCN(Cc2cc3nc(-c4cccc5[nH]ncc45)nc(N4CCOCC4)c3s2)CC1` [PICTILISIB], for which the negative logarithm of the IC50 (pIC50) in assay [4] is < 4.00.
As to `CC[C@H](Nc1ncnc2[nH]cnc12)c1nc2cccc(F)c2c(=O)n1-c1ccccc1` [IDELALISIB], the negative-log IC50 (pIC50) in assay [2] was < 6.00.
Regarding `O=c1cc(N2CCOCC2)oc2c(-c3ccccc3)cccc12` [LY-294002], the pIC50 is 5.41 in assay [6], 4.98 in assay [2] and 4.57 in assay [4].
On to `O=C1NC(=S)S/C1=C/c1ccc2c(c1)N(Cc1ccc(F)c(Cl)c1)C(=O)CO2`, for which the figures for the pIC50 in assay [2], in assay [4] and in assay [5] were 6.43, 6.85 and 5.82, respectively.
For the compound `FC(F)c1nc2ccccc2n1-c1nc(N2CCOCC2)nc(N2CCOCC2)n1` [ZSTK-474], the negative logarithm of the IC50 (pIC50) was 6.43 in assay [6], 6.74 in assay [2] and < 4.00 in assay [4].
